Patent US20220281930A1, “COMPOSITIONS AND METHODS FOR THE TREATMENT OF PATHOLOGICAL PAIN AND ITCH” (DUKE UNIVERSITY, priority 2019, published 2022)

Legend:
GSK3ß = GSK3ß (Homo sapiens, UniProt P49841); settings: literature; cited from earlier work
GSK3β = biological target: T1, GSK3β (Rattus norvegicus, UniProt P18266); experiment: DARTS assay, GSK3β; type: binding; settings: 20 μM KP; independent of detergent treatment
T1 construct: endogenous in cells; host or cells: primary rat cortical neurons
Description: Cultured primary rat cortical neurons were treated with either vehicle DMSO (0.1%) or 20 μM KP for 30 h. Cells were lysed in ice-cold lysis buffer (Tris.Cl pH8 50 mM, NaCl 150 mM, NP40 0.5%, N-dodecyl-b-D-maltoside 0.5%, Phosphatase Inhibitor (Pierce #88667) and Protease Inhibitor (Roche #11836153001)). Protein concentrations were determined by Bio-Rad DC Protein Assay kit using bovine albumin as standard. All steps were performed on ice. Samples were warmed to room temperature and digested with pronase (final concentration 1:500) for 30 min at 30° C. Digestion was halted using 0.5M EDTA. Only proteins not bound to KP were digested. The protein mixture was dialyzed using dialysis cassettes (Thermo Fisher 66203, 2K MWCO) and analyzed by LC-MS/MS method to identify proteins that are bound to KP, the latter step carried out in the Duke Proteomics Core Laboratory.
A drug affinity responsive target stability (DARTS) assay (Lomenick, et al., 2009, Proc Natl Acad Sci USA 106:21984-21989) was used to study direct binding of KP to GSK3ß (FIG. 8A) in primary cortical neurons. The findings were consistent with previous reports in cell lines (Knockaert, et al., 2002, The Journal of biological chemistry 277:25493-25501) yet novel in primary neurons. […]

δ-cat S259 = experiment: Phosphoproteomics in rat primary cortical neurons, δ-cat; type: cell-based; settings: 1 μM KP; after 1 h, sustained at 24 h
Description: (§1) Cultured rat primary cortical neurons were treated with either vehicle DMSO (0.1%) or 1 μM KP for 1 h/24 h. Cells were lysed in non-detergent-containing buffer (Tris.Cl pH8 50 mM, NaCl 150 mM, 0.5% Phosphatase Inhibitor (Pierce #88667) and Protease Inhibitor (Roche #11836153001)). 500 μL was removed and solid urea was added to a final concentration of 8M. Samples were sonicated for further solubilization. After clearing of insoluble material by centrifugation, protein concentration was measured by Bradford assay. 250 μg of total protein was removed from each sample and solubilization buffer was added to normalize all samples to 0.93 μg/μL protein. Samples were then spiked with bovine alpha-casein to 30 fmol/μg of total protein. Samples were reduced with 10 mM DTT at 32° C. for 45 min and then alkylated with 20 mM iodoacetamide at room temperature for 30 min. […]
(§2) TiO2 Enrichment. […] After cleanup using a C18 STAGE tip, and resuspension in 2% acetonitrile, 0.1% TFA, 10 mM citric acid samples were quantified.
(§3) Quantitative analysis of Phosphopeptide Enriched Samples. Quantitative LC-MS/MS was performed in singlicate (4 uL=33% of the total sample each injection) for phosphopeptide-enriched samples using a nanoAcquity UPLC system (Waters Corp) coupled to a Thermo QExactive Plus high resolution accurate mass tandem mass spectrometer (Thermo) via a nanoelectrospray ionization source. […]

ß-catenin (ß-cat) = experiment: Phosphoproteomics in rat primary cortical neurons, ß-cat; type: cell-based; settings: 1 μM KP
Description: as §1, §2, §3

T1 sequence (P18266 whole entry): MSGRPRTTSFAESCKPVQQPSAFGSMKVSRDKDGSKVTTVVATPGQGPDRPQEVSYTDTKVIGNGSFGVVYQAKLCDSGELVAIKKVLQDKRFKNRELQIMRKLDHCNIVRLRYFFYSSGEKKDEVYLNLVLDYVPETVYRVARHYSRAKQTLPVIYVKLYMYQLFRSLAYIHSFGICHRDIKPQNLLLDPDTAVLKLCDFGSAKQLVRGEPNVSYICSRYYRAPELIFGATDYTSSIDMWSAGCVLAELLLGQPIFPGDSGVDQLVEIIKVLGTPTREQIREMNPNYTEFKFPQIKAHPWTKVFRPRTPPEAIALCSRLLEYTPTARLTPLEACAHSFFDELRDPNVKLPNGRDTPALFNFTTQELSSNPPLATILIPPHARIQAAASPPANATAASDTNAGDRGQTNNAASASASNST
Chain of GSK3ß (P49841 whole entry): as the sequence (P18266 whole entry) above, with M240V, P390T, A392T, T400A, A402T counted along it

## O=C1Cc2c([nH]c3ccc(Br)cc23)-c2ccccc2N1 [kenpaullone, 9-bromo-7,12-dihydro-indolo [3,2-d] [1]benzazepin-6(5H)-one]
GSK3ß
  potency of GSK3ß inhibition among known targets: highest potency
GSK3β
  binding of KP to GSK3ß: documented
δ-cat S259
  S259 phosphorylation of δ-cat: significant de-phosphorylation
ß-catenin (ß-cat)
  differential phosphorylation of ß-cat: not significantly differentially phosphorylated
